Assay results from the NIST ThermoML archive (doi:10.1016/j.jct.2015.04.034).
± gives the expanded uncertainty stated by the source.

Tests used:
[1] = 298.15 K; 101.33 kPa; Liquid; Vibrating tube method
[2] = excess molar enthalpy (molar enthalpy of mixing); xn = mol fraction of the nth substance listed; details: 101 kPa, Liquid, Flow calorimetry

CC(C)O [propan-2-ol]
Details	mass density [kg/m3]
[1]	781.2 ± 0.15

CC1(C)C(=O)[C@]2(C)CC[C@H]1C2 [(-)-fenchone]
Details	mass density [kg/m3]
[1]	940.67 ± 0.14

CCCO [propan-1-ol]
Details	mass density [kg/m3]
[1]	799.56 ± 0.14

CC1(C)C(=O)[C@]2(C)CC[C@H]1C2 [(-)-fenchone] + CC(C)O
excess molar enthalpy [kJ/mol], [2]
Details	283.15 K	298.15 K	313.15 K	328.15 K
x1 = 0.049	0.259 ± 0.01	0.285 ± 0.01	0.304 ± 0.011	0.309 ± 0.011
x1 = 0.097	0.49 ± 0.016	0.542 ± 0.017	0.578 ± 0.019	0.586 ± 0.019
x1 = 0.192	0.853 ± 0.027	0.93 ± 0.029	0.984 ± 0.031	1.01 ± 0.031
x1 = 0.292	1.09 ± 0.034	1.2 ± 0.037	1.28 ± 0.04	1.32 ± 0.041
x1 = 0.392	1.22 ± 0.038	1.36 ± 0.042	1.46 ± 0.045	1.51 ± 0.047
x1 = 0.499	1.26 ± 0.039	1.41 ± 0.044	1.52 ± 0.047	1.58 ± 0.049
x1 = 0.598	1.23 ± 0.038	1.37 ± 0.043	1.48 ± 0.046	1.54 ± 0.048
x1 = 0.697	1.1 ± 0.034	1.23 ± 0.038	1.32 ± 0.041	1.36 ± 0.042
x1 = 0.792	0.888 ± 0.028	0.98 ± 0.031	1.05 ± 0.033	1.08 ± 0.034
x1 = 0.899	0.485 ± 0.016	0.546 ± 0.018	0.588 ± 0.019	0.601 ± 0.019
x1 = 0.947	0.276 ± 0.01	0.311 ± 0.011	0.333 ± 0.012	0.342 ± 0.012

CC1(C)C(=O)[C@]2(C)CC[C@H]1C2 [(-)-fenchone] + CCCO
excess molar enthalpy [kJ/mol], [2]
Details	283.15 K	298.15 K	313.15 K	328.15 K
x1 = 0.049	0.192 ± 0.007	0.22 ± 0.008	0.242 ± 0.009	0.256 ± 0.009
x1 = 0.098	0.366 ± 0.012	0.419 ± 0.014	0.461 ± 0.015	0.49 ± 0.016
x1 = 0.193	0.646 ± 0.02	0.732 ± 0.023	0.799 ± 0.025	0.854 ± 0.027
x1 = 0.292	0.837 ± 0.026	0.955 ± 0.03	1.05 ± 0.033	1.13 ± 0.035
x1 = 0.397	0.971 ± 0.03	1.12 ± 0.035	1.23 ± 0.038	1.32 ± 0.041
x1 = 0.493	1.02 ± 0.031	1.17 ± 0.036	1.29 ± 0.04	1.39 ± 0.043
x1 = 0.592	1 ± 0.031	1.16 ± 0.036	1.27 ± 0.039	1.36 ± 0.042
x1 = 0.691	0.912 ± 0.028	1.05 ± 0.033	1.15 ± 0.036	1.23 ± 0.038
x1 = 0.805	0.699 ± 0.022	0.796 ± 0.025	0.861 ± 0.027	0.907 ± 0.028
x1 = 0.897	0.408 ± 0.013	0.477 ± 0.015	0.522 ± 0.017	0.548 ± 0.018
x1 = 0.951	0.209 ± 0.008	0.24 ± 0.009	0.262 ± 0.01	0.275 ± 0.01
